Consider 29 molecules from patent publication US8431597B2, “Benzimidazole derivatives” (Pfizer Inc., priority 2007, dated 2013).

Where a name gives a salt, the structure may show the parent alone.

The term inhibition denotes the drop in the measured response relative to a control, in per cent.

The target of one test is T1, Smoothened (SMO) (Mus musculus, UniProt P56726).
T1 construct: C3H10T1/2 cells (ATCC #CCL-226) were split and seeded; endogenous in cells; host or cells: C3H10T1/2 (ATCC #CCL-226)
T1 sequence (P56726 33-793): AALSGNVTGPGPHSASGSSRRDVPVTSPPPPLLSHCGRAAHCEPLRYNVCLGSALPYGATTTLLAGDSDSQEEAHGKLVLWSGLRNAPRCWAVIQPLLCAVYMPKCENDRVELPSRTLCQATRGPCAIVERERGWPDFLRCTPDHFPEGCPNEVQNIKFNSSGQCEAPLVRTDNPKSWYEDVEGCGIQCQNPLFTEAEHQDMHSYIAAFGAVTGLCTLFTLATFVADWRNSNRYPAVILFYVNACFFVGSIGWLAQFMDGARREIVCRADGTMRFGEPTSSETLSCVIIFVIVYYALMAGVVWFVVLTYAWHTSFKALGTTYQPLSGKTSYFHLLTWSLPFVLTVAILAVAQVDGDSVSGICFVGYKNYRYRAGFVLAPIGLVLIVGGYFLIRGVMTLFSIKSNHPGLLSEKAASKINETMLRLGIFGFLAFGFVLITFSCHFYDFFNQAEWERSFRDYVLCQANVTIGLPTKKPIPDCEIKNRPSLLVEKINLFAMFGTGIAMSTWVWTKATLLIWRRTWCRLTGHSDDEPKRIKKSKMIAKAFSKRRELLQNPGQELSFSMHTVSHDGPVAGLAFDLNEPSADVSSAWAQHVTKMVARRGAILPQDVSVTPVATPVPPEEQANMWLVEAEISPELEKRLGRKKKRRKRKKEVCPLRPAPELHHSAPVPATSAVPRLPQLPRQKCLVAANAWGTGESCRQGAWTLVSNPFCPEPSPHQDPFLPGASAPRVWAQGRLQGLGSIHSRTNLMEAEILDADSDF
Kind of test: Smoothened (SMO)/Sonic Hedgehog (SHh) Transient Transcriptional Activation Assay (Gli-luciferase reporter in C3H10T1/2 cells). The format is cell-based, murine. To be noted: 2 μM compound; transfected C3H10T1/2 cells, recombinant human SHh 250 ng/mL, 20 hours, luciferase readout; 2 µM. In a few lines:
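C3H10T1/2 cells transiently transfected with a murine Gli-responsive firefly luciferase reporter plus pEGFP were serum-starved 20 h in 0.5% calf serum. Compound (2 μM to 2 nM final) was added with recombinant human SHh at 250 ng/mL final for 20 h at 37 °C. Read-out was Dual-Glo luminescence.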
On the technique in general: In a reporter assay the amount or activity of a reporter protein is the signal.
Consider `O=C(N[C@@H]1CN[C@H](c2nc3ccccc3[nH]2)C1)c1ccc2c(c1)OCCO2` [Example 9, N-[(3S,5S)-5-(1H-benzimidazol-2-yl)pyrrolidin-3-yl]-2,3-dihydro-1,4-benzodioxine-6-carboxamide], for which the “SMO CELL % INHIBITION @ 2 μM” value is 65.00%.

Still in this test, the particulars now being: C3H 10T1/2, 2 μM compound; transfected C3H10T1/2 cells, recombinant human SHh 250 ng/mL, 20 hours, luciferase readout; read-out: SMO CELL % INHIBITION @ 2 μM.
With `CN1CC[C@@H](NC(=O)Nc2cccnc2)C[C@@H]1c1nc2ccccc2[nH]1` [Example 80, 1-[(2R,4R)-2-(1H-benzimidazol-2-yl)-1-methylpiperidin-4-yl]-3-pyridin-3-ylurea hydrochloride], the inhibition at 2 µM turned out to be 98%.

On to `CN1CC[C@@H](NC(=O)Nc2ccc(C#N)nc2)C[C@@H]1c1nc2ccccc2[nH]1` [Example 54, 1-[(2R,4R)-2-(1H-benzimidazol-2-yl)-1-methylpiperidin-4-yl]-3-(6-cyanopyridin-3-yl)urea hydrochloride], for which the inhibition at 2 µM worked out at 105%.

Take `Cc1ccc2nc([C@@H]3C[C@H](NC(=O)Nc4ccc(Cl)c(C(F)(F)F)c4)CN3C)[nH]c2c1` [Example 22, 1-[4-chloro-3-(trifluoromethyl)phenyl]-3-[(3S,5S)-1-methyl-5-(6-methyl-1H-benzimidazol-2-yl)pyrrolidin-3-yl]urea]: the inhibition at 2 µM turned out to be 102%.

Turning to `Cc1cc2nc([C@H]3C[C@H](NC(=O)c4ccc5c(c4)OCCO5)CCN3C)[nH]c2cc1C` [Example 49, N-[(2R,4R)-2-(5,6-dimethyl-1H-benzimidazol-2-yl)-1-methylpiperidin-4-yl]-2,3-dihydro-1,4-benzodioxine-6-carboxamide hydrochloride], the inhibition at 2 µM came out at 105%.

Turning to `CC(C)c1ccc(NC(=O)N[C@@H]2CCN(C)[C@@H](c3nc4ccccc4[nH]3)C2)cc1` [Example 53, 1-[(2R.4R)-2-(1H-benzimidazol-2-yl)-1-methylpiperidin-4-yl]-3-(4-isopropylphenyl)urea hydrochloride], the inhibition at 2 µM worked out at 105%.

As for `COc1ccc(NC(=O)N[C@@H]2CCN(C)[C@@H](c3nc4cc(C)c(C)cc4[nH]3)C2)cn1` [Example 138, 1-[(2R,4R)-2-(5,6-dimethyl-1H-benzimidazol-2-yl)-1-methylpiperidin-4-yl]-3-(6-methoxypyridin-3-yl)urea hydrochloride], the inhibition at 2 µM stood at 108%.

In the case of `CCN1CC[C@@H](NC(=O)Nc2ccc(C#N)cc2)C[C@@H]1c1nc2ccccc2[nH]1` [Example 46, 1-[(2R,4R)-2-(1H-benzimidazol-2-yl)-1-ethylpiperidin-4-yl]-3-(4-cyanophenyl)urea], the inhibition at 2 µM came to 105%.

`CN1CC[C@@H](NC(=O)c2ccc(N=[N+]=[N-])cc2)C[C@@H]1c1nc2ccccc2[nH]1` [Example 72, 4-azido-N-[(2R,4R)-2-(1H-benzimidazol-2-yl)-1-methylpiperidin-4-yl]benzamide]: the inhibition at 2 µM came out at 101%.

On to `CN1CC[C@@H](NC(=O)c2ccc3c(c2F)OCCO3)C[C@@H]1c1nc2ccccc2[nH]1` [Example 141, N-[(2R,4R)-2-(1H-benzimidazol-2-yl)-1-methylpiperidin-4-yl]-5-fluoro-2,3-dihydro-1,4-benzodioxine-6-carboxamide trifluoroacetate], for which the inhibition at 2 µM came to 85.3%.

For `COc1ccc2[nH]c([C@H]3C[C@H](NC(=O)c4cc5c(cc4Cl)OCCO5)CCN3C)nc2c1` [Example 149, 7-chloro-N-[(2R,4R)-2-(5-methoxy-1H-benzimidazol-2-yl)-1-methylpiperidin-4-yl]-2,3-dihydro-1,4-benzodioxine-6-carboxamide triflouroacetate], the inhibition at 2 µM was determined as 35.3%.

Take `CN1CC[C@@H](NC(=O)c2ccc3c(c2)OCCO3)C[C@H]1c1nc2ccccc2[nH]1` [Example 42, N-[(2S,4R)-2-(1H-benzimidazol-2-yl)-1-methylpiperidin-4-yl]-2,3-dihydro-1,4-benzodioxine-6-carboxamide hydrochloride]: the inhibition at 2 µM was 106%.

Consider `Cc1ccc2[nH]c([C@H]3C[C@H](NC(=O)Nc4ccc(C#N)cc4)CCN3C)nc2c1` [Example 36, 1-(4-cyanophenyl)-3-[(2R,4R)-1-methyl-2-(5-methyl-1H-benzimidazol-2-yl)piperidin-4-yl]urea hydrochloride], for which the inhibition at 2 µM turned out to be 107%.

With `CN1C[C@H](NC(=O)Nc2ccc(Cl)c(C(F)(F)F)c2)C[C@H]1c1nc2ccc(F)cc2[nH]1` [Example 14, 1-[4-chloro-3-(trifluoromethyl)phenyl]-3-[(3R,5S)-5-(6-fluoro-1H-benzimidazol-2-yl)-1-methylpyrrolidin-3-yl]urea], the inhibition at 2 µM was 81.8%.

In the case of `Cc1ccc(NC(=O)N[C@@H]2CCN(C)[C@@H](c3nc4ccc(F)cc4[nH]3)C2)cn1` [Example 132, 1-[(2R,4R)-2-(6-fluoro-1H-benzimidazol-2-yl)-1-methylpiperidin-4-yl]-3-(6-methylpyridin-3-yl)urea hydrochloride], the inhibition at 2 µM was determined as 108%.

For `Cc1cccc2cc(C(=O)N[C@@H]3CCN(C)[C@@H](c4nc5ccccc5[nH]4)C3)nn12` [Example 118, N-[(2R,4R)-2-(1H-benzimidazol-2-yl)-1-methylpiperidin-4-yl]-7-methylpyrazolo[1,5-a]pyridine-2-carboxamide trifluoroacetate], the inhibition at 2 µM was found to be 65.1%.

Regarding `Cc1ccc2nc([C@H]3C[C@H](NC(=O)c4ccc5c(c4)OCCO5)CCN3C)[nH]c2c1` (stereo in doubt) [Example 6, 2,3-Dihydro-benzo[1,4]dioxine-6-carboxylic acid [1-methyl-2-(6-methyl-1H-benzoimidazol-2-yl)-piperidin-4-yl]-amide hydrochloride], the inhibition at 2 µM is 105%.

In the case of `CN1CC[C@H](NC(=O)c2ccc3c(c2)OCCO3)C[C@@H]1c1nc2ccccc2[nH]1` [Example 94, N-[(2R,4S)-2-(1H-benzimidazol-2-yl)-1-methylpiperidin-4-yl]-2,3-dihydro-1,4-benzodioxine-6-carboxamide hydrochloride], the inhibition at 2 µM came to 79.7%.

As for `CN1CC[C@@H](NC(=O)Cc2ccccc2)C[C@@H]1c1nc2ccccc2[nH]1` [Example 110, N-[(2R,4R)-2-(1H-benzimidazol-2-yl)-1-methylpiperidin-4-yl]-2-phenylacetamide trifluoroacetate], the inhibition at 2 µM worked out at 83.2%.

On to `CN1CC[C@@H](NC(=O)c2ccc3c(c2F)OCCO3)C[C@@H]1c1nc2cc(Cl)ccc2[nH]1` [Example 142, N-[(2R,4R)-2-(5-chloro-1H-benzimidazol-2-yl)-1-methylpiperidin-4-yl]-5-fluoro-2,3-dihydro-1,4-benzodioxine-6-carboxamide triflouroacetate], for which the inhibition at 2 µM turned out to be 101%.

As for `CN1C[C@@H](NC(=O)c2ccc3c(c2)OCCO3)C[C@H]1c1nc2ccccc2[nH]1` [Example 21, N-[(3S,5S)-5-(1H-benzimidazol-2-yl)-1-methylpyrrolidin-3-yl]-2,3-dihydro-1,4-benzodioxine-6-carboxamide], the inhibition at 2 µM is 61.8%.

Take `CN1CC[C@@H](NC(=O)Cn2cc3ccccc3n2)C[C@@H]1c1nc2ccccc2[nH]1` [Example 108, N-[(2R,4R)-2-(1H-benzimidazol-2-yl)-1-methylpiperidin-4-yl]-2-(2H-indazol-2-yl)acetamide trifluoroacetate]: the inhibition at 2 µM worked out at 86.4%.

For `Cc1ccc2[nH]c([C@H]3C[C@H](NC(=O)Nc4ccc(C(F)(F)F)nc4)CCN3C)nc2c1` [Example 65, 1-[(2R,4R)-1-methyl-2-(5-methyl-1H-benzimidazol-2-yl)piperidin-4-yl]-3-[6-(trifluoromethyl)pyridin-3-yl]urea hydrochloride], the inhibition at 2 µM turned out to be 103%.

On to `CN1CC[C@@H](NC(=O)c2ccc3c(c2Cl)OCCO3)C[C@@H]1c1nc2cc(Cl)ccc2[nH]1` [Example 145, 5-chloro-N-[(2R,4R)-2-(5-chloro-1H-benzimidazol-2-yl)-1-methylpiperidin-4-yl]-2,3-dihydro-1,4-benzodioxine-6-carboxamide triflouroacetate], for which the inhibition at 2 µM was 106%.

As to `CN1CC[C@@H](NC(=O)C(F)(F)c2ccccc2)C[C@@H]1c1nc2ccccc2[nH]1` [Example 122, N-[(2R,4R)-2-(1H-benzimidazol-2-yl)-1-methylpiperidin-4-yl]-2(2-difluoro-2-phenylacetamide trifluoroacetate], the inhibition at 2 µM worked out at 57.5%.

Regarding `CC(C)N1C[C@@H](NC(=O)Nc2ccc(Cl)c(C(F)(F)F)c2)C[C@H]1c1nc2ccccc2[nH]1` [Example 93, 1-[(3S,5S)-5-(1H-benzimidazol-2-yl)-1-isopropyl-pyrrolidin-3-yl]-3-[4-chloro-3-(trifluoromethyl)phenyl]urea], the inhibition at 2 µM is 85.2%.

With `CN1CC[C@@H](NC(=O)Nc2ccc(C#N)cc2)C[C@@H]1c1nc2cc(C(F)(F)F)ccc2[nH]1` [Example 7, 1-(4-cyanophenyl)-3-{(2R,4R)-1-methyl-2-[5-(trifluoromethyl)-1H-benzimidazol-2-yl]piperidin-4-yl}urea hydrochloride], the inhibition at 2 µM was 109%.

As to `COc1ccc(NC(=O)N[C@@H]2CCN(C)[C@@H](c3nc4cc(C)ccc4[nH]3)C2)cn1` [Example 137, 1-{6-methoxypyridin-3-yl)-3-[(2R.4R)-1-methyl-2-(5-methyl-1H-benzimidazol-2-yl)piperidin-4-yl]urea hydrochloride], the inhibition at 2 µM stood at 102%.

`CN1CC[C@@H](NC(=O)c2cc3c(cc2Cl)OCCO3)C[C@@H]1c1nc2ccccc2[nH]1` [Example 147, N-[(2R,4R)-2-(1H-benzimidazol-2-yl)-1-methylpiperidin-4-yl]-7-chloro-2,3-dihydro-1,4-benzodioxine-6-carboxamide triflouroacetate]: the inhibition at 2 µM is 69.5%.
